Source: article PMC6568410, “A scorpion venom peptide derivative BmKn‒22 with potent antibiofilm activity against Pseudomonas aeruginosa” (PLoS ONE, 2019)
Where no end group is shown, it is not given here.

Key:
[1] = system: P. aeruginosa PAO1 biofilm formation; assay: Biofilm formation assay, crystal violet staining; format: cell-based, Pseudomonas aeruginosa; settings: for reduction of P. aeruginosa biofilms: 24 h, compared with untreated control, result in words
Procedure: The effect of BmKn‒2 peptide and derivatives on biofilm formation of P. aeruginosa PAO1 was determined according to the method published previously with some modifications. Briefly, 100 μL of the test peptides was plated into the wells of flat-bottomed 96-well microtiter plates (Nunc™, Roskilde, Denmark) at the final concentrations of 200 ‒ 800 μM. Aliquots of the P. aeruginosa PAO1 suspension were then inoculated to the wells of 96-well microtiter plates to obtain a final concentration of 10^6 CFU/mL. Culture without the test peptides was used as the untreated control. After incubation at 37 ^OC for 24 h without agitation, planktonic cells were removed and the plates were gently rinsed twice with phosphate buffered saline (PBS) pH 7.4. Biofilms were then stained with 0.1% crystal violet solution (Merck, Darmstadt, Germany) for 10 minutes at room temperature. Excess stains were rinsed off with PBS pH 7.4 and the plates were left dry at 37 ^OC for 2 h. Subsequently, biofilm biomass was solubilized with 30% acetic acid and the optical density (OD) measured at 550 nm using a microplate reader (BioTek Synergy HT).

[2] = system: P. aeruginosa PAO1 established biofilms; assay: Established (24 h-preformed) biofilm assay, crystal violet staining; format: cell-based, Pseudomonas aeruginosa
Procedure: Antibiofilm activity of the test peptides was also examined against established biofilms as follows. Aliquots of the P. aeruginosa PAO1 suspension adjusted to a final concentration of 10^6 CFU/mL were seeded into the wells of flat-bottomed 96-well microtiter plates (Nunc). Biofilms were established at 37°C for 24 h. After incubation, nonadherent planktonic cells were removed by gently washing the wells with sterile PBS pH 7.4. Preformed biofilms were then treated with the test peptides at concentrations of 200 ‒ 800 μM and incubated at 37°C for 24 h. Culture without the test peptides served as the untreated control. After the incubation, the test peptides were aspirated gently and the plates were rinsed twice with PBS pH 7.4. Biofilm biomass was subsequently quantified by 0.1% crystal violet staining as previously described.

P. aeruginosa PAO1 = assay: Growth assay, standard plate counts; format: cell-based, Pseudomonas aeruginosa; settings: 800 µM, 24 h; for effect on bacterial counts (growth): compared with untreated control, result in words
Procedure: The effects of BmKn‒2 peptide and its derivatives on growth of P. aeruginosa PAO1 were carried out as described previously with some modifications. Bacterial suspension (10^6 CFU/mL) and the test peptides (800 μM, final concentration) were incubated at 37 ^OC at 150 rpm. Bacterial culture without the test peptides was used as the untreated control. After 24 h, bacterial concentration was evaluated. Cultures from each treatment were taken and 10-fold serial dilution was performed; 100 μL of each dilution was then spread on LB agar plates. Following incubation at 37°C for 24 h, the colonies were counted and expressed as log10 CFU/mL.

sheep red blood cells = assay: Hemolytic assay; format: cell-based; settings: 800 µM, 37 °C, 1 h
Procedure: Hemolytic activity of the test peptides was assayed according to a protocol described previously. Suspension of 2% sheep red blood cells (100 μL) prepared in PBS pH 7.4 was incubated with 100 μL of the test peptides (800 μM, final concentration). After incubation at 37 ^OC for 1 h, the suspension was centrifuged at 1,000 g for 5 min followed by transferring 100 μL of the supernatant to 96 well-microtiter plate (Nunc). Released hemoglobin was then determined by measuring an absorbance at 405 nm using a microplate reader (BioTek Synergy HT). Positive and negative controls in this assay were 1% Triton X-100 and PBS pH 7.4, respectively. Hemolysis (%) was calculated using an equation: (OD405 nm peptide ‒ OD405 nm PBS pH 7.4)/(OD405 nm 1% Triton X-100 ‒ OD405 nm PBS pH 7.4) × 100.

[3] = system: L929 mouse fibroblast cells; assay: Cytotoxicity, MTT assay; format: cell-based; settings: 800 µM, 24 h; for effect on viability of L929 cells: compared with untreated control, result in words; for Cell viability (%): L929 cells
Procedure: The toxicity of the test peptides against L929 mouse fibroblast cells was assessed by 3-(4,5-dimethylthiazol-2-yl)-2,5-diphenyltetrazolium bromide (MTT) assay. L929 mouse fibroblast cells from American Type Culture Collection (ATCC, Manassas, VA, USA) were cultured in Dulbecco's Modified Eagle Medium (DMEM; HyClone, Utah, USA) supplemented with 10% fetal bovine serum (Gibco, South America), 10 mM 4-(2-hydroxyethyl)-1 piperazineethanesulfonic acid (HEPES; HyClone, Utah, USA), 2 mM L-glutamine (Gibco, Brazil) and 100 U/mL penicillin and 100 μg/ml streptomycin (Gibco, USA) in a 5% CO2 atmosphere at 37°C. L929 cells (2×10^4 cells/well) were seeded in 96-well plates (Nunc) and incubated overnight. The culture medium was discarded and replaced by 100 μL of fresh DMEM containing the test compounds (final concentration 800 μM). Cells without the test compounds served as untreated control. After 24 h incubation, 20 μL of MTT solution (5 mg/mL; Sigma, St. Louis, MO, USA) was added and incubated for 3 h. The culture supernatant was removed and 100 μL dimethyl sulfoxide was added to each well to dissolve the formazan crystals. The absorbance was measured at 540 nm on a microplate reader (BioTek Synergy HT). Percentage of cell viability was calculated according to the equation: (OD of treated cells/ OD of untreated cells) × 100.

[4] = 37 °C, 150 rpm, plate counts, untreated control 9.183, mean of 3 independent experiments
[5] = Exp. 1 (untreated control 9.082)
[6] = Exp. 2 (untreated control 9.198)
[7] = Exp. 3 (untreated control 9.268)

Sequence | reduction of P. aeruginosa biofilms ([1]; 800 µM) | Bacterial growth, Log10 CFU/mL (P. aeruginosa PAO1; [4]) [Log10 CFU/mL] | effect on bacterial counts (growth) (P. aeruginosa PAO1) | Bacterial growth, Log10 CFU/mL (P. aeruginosa PAO1; [5]) [Log10 CFU/mL] | Bacterial growth, Log10 CFU/mL (P. aeruginosa PAO1; [6]) [Log10 CFU/mL] | Bacterial growth, Log10 CFU/mL (P. aeruginosa PAO1; [7]) [Log10 CFU/mL] | lysis of red blood cells (sheep red blood cells) | effect on viability of L929 cells [3] | Cell viability (%) ([3]; Exp. 1) | Cell viability (%) ([3]; Exp. 2) | Cell viability (%) ([3]; Exp. 3) | other results
FIGAIARLLS [BmKn-23] | marked reduction | 9.429 | no significant (P > 0.05) differences in bacterial counts | 9.488 | 9.359 | 9.440 | less or no hemolysis | low effects on cell viability | 80.383 | 84.400 | 88.135 | Biofilm inhibition (%), biofilm formation ([1]; 200 µM, Exp. 1): 28.654%; Biofilm inhibition (%), biofilm formation ([1]; 200 µM, Exp. 2): 28.944%; Biofilm inhibition (%), biofilm formation ([1]; 200 µM, Exp. 3): 40.209%; Biofilm inhibition (%), biofilm formation ([1]; 400 µM, Exp. 1): 34.053%; Biofilm inhibition (%), biofilm formation ([1]; 400 µM, Exp. 2): 36.612%; Biofilm inhibition (%), biofilm formation ([1]; 400 µM, Exp. 3): 46.402%; Biofilm inhibition (%), biofilm formation ([1]; 800 µM, Exp. 1): 44.669%; Biofilm inhibition (%), biofilm formation ([1]; 800 µM, Exp. 2): 49.083%; Biofilm inhibition (%), biofilm formation ([1]; 800 µM, Exp. 3): 70.992%; Biofilm inhibition (%), preformed biofilm ([2]; 200 µM, Exp. 1): 0.000%; Biofilm inhibition (%), preformed biofilm ([2]; 200 µM, Exp. 2): 3.802%; Biofilm inhibition (%), preformed biofilm ([2]; 200 µM, Exp. 3): 6.512%; Biofilm inhibition (%), preformed biofilm ([2]; 400 µM, Exp. 1): 12.191%; Biofilm inhibition (%), preformed biofilm ([2]; 400 µM, Exp. 2): 4.570%; Biofilm inhibition (%), preformed biofilm ([2]; 400 µM, Exp. 3): 0.000%; Biofilm inhibition (%), preformed biofilm ([2]; 800 µM, Exp. 1): 3.155%; Biofilm inhibition (%), preformed biofilm ([2]; 800 µM, Exp. 2): 0.000%; Biofilm inhibition (%), preformed biofilm ([2]; 800 µM, Exp. 3): 8.639%; % inhibition of 24 h-preformed P. aeruginosa biofilms ([2]; range over 200 - 800 µM, 24 h treatment): No eradication activity
FIGAIARL [BmKn-25] | less biofilm reduction activities | 9.293 | no significant (P > 0.05) differences in bacterial counts | 9.255 | 9.288 | 9.335 | less or no hemolysis | low effects on cell viability | 82.909 | 93.165 | 83.012 | 
FIGAIARLLSKIF [BmKn-2, reference compound] | marked reduction | 6.872 | reduction in bacterial counts | 6.755 | 6.448 | 7.411 |  | significant decrease (P < 0.001) in viability | 2.236 | 2.027 | 1.988 | 
